Experimental findings from patent EP0102195A2, “Substituted aza bicycloalkyl derivatives with dopamine antagonist activity” (BEECHAM GROUP PLC, priority 1982, dated 1984) are described below.

One test deals with Heidenhain pouch. Nature of the test: Heidenhain pouch test (gastric motility enhancing activity). The conditions noted are these: Beagle dogs; for period of activity: Heidenhain pouch. Type of test: in vivo, Male Beagle dogs.
The test system of the next test is dog. Nature of the test: Anti-emetic activity in the dog (apomorphine-induced vomiting). The class given is in vivo. The conditions noted are these: for ED50: Canis lupus familiaris, sc, 30 minutes prior to apomorphine HCl 0.1 mg/kg subcutaneously, vomiting response. On the procedure: Compounds were administered subcutaneously 30 minutes prior to administration of a standard dose of apomorphine HCl (0.1 mg/kg subcutaneously) and the vomiting response compared to that obtained when the same animals were dosed with apomorphine HC1 and vehicle only.

The subject of another test is Dopamine receptor. Description: Inhibition of apomorphine induced climbing in the mouse (central dopamine receptor blocking activity). Type of test: in vivo. The conditions noted are these: apomorphine 1 mg/kg s.c.
A further test has as its system rats. Description: Increase in intragastric pressure (gastric motility enhancing activity). The class given is in vivo. The conditions noted are these: 0.5 mg/kg s.c.; conscious restrained rats; average height of pressure waves, 40 minutes post dose vs pre-dose, Student's t test. The protocol:
Intragastric pressure changes were recorded from previously starved conscious but restrained rats using a saline filled catheter inserted into the lumen of the stomach via a permanent gastric fistula. The catheter was connected to a physiological pressure transducer and pressure changes recorded on a hot wire pen recorder. In each animal a pre-dose period of 40 minutes was allowed to obtain a measure of spontaneous activity. An index of activity was obtained by measuring the average height of pressure waves during 10 minute periods. Values for 4 such periods were obtained during assessment of spontaneous activity and for 40 minute period after administration of compound. Student's "t" test was applied to the difference in average values obtained for spontaneous and post compound activity.

Broadly, the ED50 is the dose at which the effect has come halfway, by size or by number of responders. A lower ED50 goes with greater potency. With `CN(C)c1ccc(S(=O)(=O)N(C)C)cc1C(=O)N[C@@H]1C[C@H]2CC[C@@H](C1)N2Cc1ccccc1` [Example 2, 2-Dimethylamino-5-dimethylaminosulphonyl-ls(3'6-(8'-benzyl-8'-azabicyclo{3.2.1]octyl)]-benzamide], the “motility of the pouch (activity)” value in the test with Heidenhain pouch (dose of 0.5 mg/kg s.c.) is “active”. In the test on dog, this compound returned an ED50 of 0.1 mg/kg. Moreover, in the test with Dopamine receptor (dose of 10 mg/kg s.c.), the “inhibition of apomorphine induced climbing” value (from here on “inhibition”) is “inactive”.
On to `CNc1ccc(S(=O)(=O)N(C)C)cc1C(=O)N[C@@H]1C[C@H]2CC[C@@H](C1)N2Cc1ccccc1` [Example 3, 5-Dimethylaminosulphonyl-2-methylamino-N(3'β(8'-benzyl-8'-azabicyclo{3.2.1}octyl)]benzamide], for which the “index of activity post administration” value in the test with rats is on record as “significantly increased”. For the same compound, the period of activity result in the test on Heidenhain pouch is given as “greater than 1 hour”. Further, the “motility of the pouch (activity)” value in the test with Heidenhain pouch (dose of 0.1 mg/kg s.c.) is listed as “active”. The “inhibition” value with Dopamine receptor (dose of 25 mg/kg s.c.) was “inactive”.
Turning to `CCOC(=O)N(C)c1ccc(S(=O)(=O)N(C)C)cc1C(=O)N[C@@H]1C[C@H]2CC[C@@H](C1)N2Cc1ccccc1` [Example 4, 5-Dimethylaminosulphonyl-2-(N-methyl-N-ethoxycarbonyl)amino-N [3'8-(8'-benzyl-8'-azabicyclo{3.2.1]octyl)] benzamide], the “inhibition” value in the test on Dopamine receptor (dose of 10 mg/kg s.c.) was “inactive”.
With `CCNc1ccc(S(=O)(=O)N(C)C)cc1C(=O)N[C@@H]1C[C@H]2CC[C@@H](C1)N2Cc1ccccc1` [Example 5, 5-Dimethylaminosulphonyl-2-ethylamino-N[3 ε'-(8' -benzyl-8' -azabicyclo'{3.2.1)octyl)]-benzamide], the “index of activity post administration” value with rats is given as “significantly increased”. Further, in the test with Dopamine receptor (dose of 10 mg/kg s.c.), the “inhibition” value was “inactive”.
`CN(C)S(=O)(=O)c1ccc(NC2CC2)c(C(=O)N[C@@H]2C[C@H]3CC[C@@H](C2)N3Cc2ccccc2)c1` [Example 6]: the “index of activity post administration” value in the test on rats was “significantly increased”. Also, the period of activity result in the test on Heidenhain pouch is “greater than 1 hour”. Besides, the “motility of the pouch (activity)” value in the test on Heidenhain pouch (dose of 0.5 mg/kg s.c.) is recorded as “active”. The same compound showed an ED50 with dog of 0.5 mg/kg. In addition, in the test on Dopamine receptor (dose of 10 mg/kg s.c.), the “inhibition” value is “inactive”.
As to `CNc1cccc(OC)c1C(=O)N[C@@H]1C[C@H]2CC[C@@H](C1)N2Cc1ccccc1` [Example 12, 2-Methylamino-6-methoxy-N-[3β-(8-benzyl-8-azabicyclo (3,2,1)octyl)]benzamide], the anti-emetic activity result in the test with dog (dose of 0.01 mg/kg s.c., apomorphine HCl 0.1 mg/kg subcutaneously) is “active”.
